# pIC50: −log10 of the molar value.
# Test system: MLLr leukemia cell line MV4-11
# Assay: Cell proliferation assay MV4;11 (CellTiter-Glo, 72 hours)
# Type: cell-based
# Settings: Homo sapiens; MV4-11 cells, 72 hours, CellTiter-Glo; read-out: MV4; 11 IC50
# Method: Compounds were evaluated for its capacity to inhibit the proliferation of the MLLr leukemia cell line MV4-11 that harbors an MLL1-AF4 fusion protein. MV4-11 cells were cultured for 72 hours with limiting dilutions of compounds and viability was measured using CellTiter-Glo.
# Compounds were dissolved to obtain as 10 mM solution in DMSO. The stock was diluted 1:5 to the top concentration of 2 mM in 100% DMSO. For IC50 determination, serial 1:3.16 dilutions were prepared in 100% DMSO by diluting 20 μL into 43.5 μL of DMSO for 8 concentrations. Each prepared DMSO solution were further diluted 1:500 in the cell culture media to obtain the 2× dosing solutions. The final concentrations of tested compounds in the cell culture media ranged from 0.632 nM to 2000 nM.
# MV4-11 cells were cultured in IMDM with 10% FBS and 1× Penicillin-Streptomycin at 5% CO2 and 37° C. A cell suspension was prepared containing 15,000 cells/ml in the culture medium and 100 μL of this suspension was added per well to a 96-well cell culture plate. Then, 100 μL of 2× dosing media containing test compounds were added bringing the total volume to 200 μL. These cells were cultured for 72 hours at 37° C. and 5% CO2 in a humidified incubator.
# After 72 hours, the cultured cells were mixed and 100 μL was transferred to a 96-well black plate. Cell Titer Glo (100 μl) was then added to this plate. The plate was mixed with shaking for 15 mins at RT, the luminescence was then measured using Tecan Spark 20M spectrophotometer. Cell Viability (%) was determined by RLU of test/RLU average vehicle control*100 and % max inhibition was determined by 100−(% cell viability remaining at the top concentration of compound).
row,pIC50,SMILES
1,> 7.00,"CCN(C(=O)c1cc(F)ccc1Oc1cncnc1N1CC2(CCN(C[C@@H]3CC[C@@H](NS(=O)(=O)c4ccc(=O)n(C)c4)CO3)CC2)C1)C(C)C [Example 74, N-Ethyl-5-fluoro-N-isopropyl-2-((4-(7-(((2S,5R)-5-((1-methyl-6-oxo-1,6-dihydropyridine)-3-sulfonamido)tetrahydro-2H-pyran-2-yl)methyl)-2,7-diazaspiro[3.5]nonan-2-yl)pyrimidin-5-yl)oxy)benzamide]"
2,> 7.00,CC(C)N(C(=O)c1cc(F)ccc1Oc1cncnc1N1CC2(CCN(C[C@@H]3CC[C@@H](NS(=O)(=O)C4CCOCC4)CO3)CC2)C1)C(C)C [Example 79]
3,> 7.00,"CC(C)N(C(=O)c1cc(F)ccc1Oc1cncnc1N1CC2(CCN(C[C@@H]3CC[C@@H](NS(=O)(=O)c4ccc(=O)n(C)c4)CO3)CC2)C1)C(C)C [Example 92, 5-Fluoro-N,N-diisopropyl-2-((4-(7-(((2S,5R)-5-((1-methyl-6-oxo-1,6-dihydropyridine)-3-sulfonamido)tetrahydro-2H-pyran-2-yl)methyl)-2,7-diazaspiro[3.5]nonan-2-yl)pyrimidin-5-yl)oxy)benzamide]"
4,> 7.00,"CC(C)N(CC(F)F)C(=O)c1cc(F)ccc1Oc1cncnc1N1CC2(CCN(C[C@@H]3CC[C@@H](NS(=O)(=O)C4CCOCC4)CO3)CC2)C1 [Example 98, N-(2,2-Difluoroethyl)-5-fluoro-N-isopropyl-2-((4-(7-(((2S,5R)-5-((tetrahydro-2H-pyran)-4-sulfonamido)tetrahydro-2H-pyran-2-yl)methyl)-2,7-diazaspiro[3.5]nonan-2-yl)pyrimidin-5-yl)oxy)benzamide]"
5,> 7.00,"CCn1cc(S(=O)(=O)N[C@@H]2CC[C@@H](CN3CCC4(CC3)CN(c3ncncc3Oc3ccc(F)cc3C(=O)N(CC(F)F)C(C)C)C4)OC2)cn1 [Example 106, N-(2,2-Difluoroethyl)-2-((4-(7-(((2S,5R)-5-((1-ethyl-1H-pyrazole)-4-sulfonamido)tetrahydro-2H-pyran-2-yl)methyl)-2,7-diazaspiro[3.5]nonan-2-yl)pyrimidin-5-yl)oxy)-5-fluoro-N-isopropylbenzamide]"
6,> 7.00,"CC(C)N(C(=O)c1cc(F)ccc1Oc1cncnc1N1CC2(CCN(C[C@@H]3CC[C@@H](NS(C)(=O)=O)CO3)CC2)C1)C1CC(F)(F)C1 [Example 112, N-(3,3-Difluorocyclobutyl)-5-fluoro-N-isopropyl-2-((4-(7-(((2S,5R)-5-(methylsulfonamido)tetrahydro-2H-pyran-2-yl)methyl)-2,7-diazaspiro[3.5]nonan-2-2-yl)pyrimidin-5-yl)oxy)benzamide]"
7,> 7.00,"Cc1nc(S(=O)(=O)N[C@@H]2CC[C@@H](CN3CCC4(CC3)CN(c3ncncc3Oc3ccc(F)cc3C(=O)N(C(C)C)[C@@H]3CCOC3)C4)OC2)cs1 [Example 133, 5-Fluoro-N-isopropyl-2-((4-(7-(((2S,5R)-5-((2-methylthiazole)-4-sulfonamido)tetrahydro-2H-pyran-2-yl)methyl)-2,7-diazaspiro[3.5]nonan-2-yl)pyrimidin-5-yl)oxy)-N-((R)-tetrahydrofuran-3-yl)benzamide]"
8,> 7.00,"Cc1nc(S(=O)(=O)N[C@@H]2CC[C@@H](CN3CCC4(CC3)CN(c3ncncc3Oc3ccc(F)cc3C(=O)N(C(C)C)[C@H]3CCOC3)C4)OC2)cs1 [Example 135, 5-Fluoro-N-isopropyl-2-((4-(7-(((2S,5R)-5-((2-methylthiazole)-4-sulfonamido)tetrahydro-21H-pyran-2-yl)methyl)-2,7-diazaspiro[3.5]nonan-2-yl)pyrimidin-5-yl)oxy)-N-((S)-tetrahydrofuran-3-yl)benzamide]"
9,6.00 to 7.00,"CC(C)N(C)C(=O)c1cc(F)ccc1Oc1cncnc1N1CC2(CCN(C[C@@H]3CC[C@@H](NS(=O)(=O)c4cnn(C)c4)CO3)CC2)C1 [Example 139, 5-Fluoro-N-isopropyl-N-methyl-2-((4-(7-(((2S,5R)-5-((1-methyl-1H-pyrazole)-4-sulfonamido)tetrahydro-2H-pyran-2-yl)methyl)-2,7-diazaspiro[3.5]nonan-2-yl)pyrimidin-5-yl)oxy)benzamide]"

# From patent US20240400564A1 (Syndax Pharmaceuticals, Inc, priority 2021, published 2024)
